Data taken from patent US9777001B2 (priority 2014, dated 2017).
pKi: −log10 of the molar value. Where a name gives a salt, the structure may show the parent alone.

Each compound was assayed against human plasma kallikrein (Homo sapiens, UniProt P03952) (assay: biochemical). Details: purified human plasma kallikrein, substrate S-2302, sodium phosphate buffer pH 7.5.
Chain of human plasma kallikrein (P03952 391-638 limits assumed): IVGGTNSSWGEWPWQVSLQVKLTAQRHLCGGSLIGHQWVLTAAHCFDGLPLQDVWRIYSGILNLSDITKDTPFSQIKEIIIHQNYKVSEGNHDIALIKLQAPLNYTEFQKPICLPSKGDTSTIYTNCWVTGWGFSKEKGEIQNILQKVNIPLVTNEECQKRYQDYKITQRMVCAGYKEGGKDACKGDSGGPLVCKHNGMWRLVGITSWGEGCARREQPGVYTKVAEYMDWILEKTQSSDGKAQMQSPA
Chain of human plasma kallikrein (P03952 20-390 partner limits assumed): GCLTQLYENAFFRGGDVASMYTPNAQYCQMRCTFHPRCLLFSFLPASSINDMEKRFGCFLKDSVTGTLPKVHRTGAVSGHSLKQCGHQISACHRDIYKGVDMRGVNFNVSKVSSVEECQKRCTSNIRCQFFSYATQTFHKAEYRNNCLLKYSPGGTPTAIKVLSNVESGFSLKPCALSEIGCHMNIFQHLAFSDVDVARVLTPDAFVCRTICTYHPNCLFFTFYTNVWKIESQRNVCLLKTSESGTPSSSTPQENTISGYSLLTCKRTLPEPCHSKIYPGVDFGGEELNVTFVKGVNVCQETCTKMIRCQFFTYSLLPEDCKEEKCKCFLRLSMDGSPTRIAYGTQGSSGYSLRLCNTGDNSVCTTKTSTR

Compound | pKi
C[C@@H]1CCC[C@H](n2cnc(-c3cc(Cl)ccc3-n3cc(C#N)nn3)cc2=O)c2cc(ccn2)-c2ccc(C#N)cc2NC1=O [Example 38, (10R,14S)-14-{4-[5-Chloro-2-(4-cyano-1H-1,2,3-triazol-1-yl)phenyl]-6-oxo-1,6-dihydropyrimidin-1-yl}-10-methyl-9-oxo-8,16-diazatricyclo[13.3.1.0^2,7]nonadeca-1(19),2(7),3,5,15,17-hexaene-5-carbonitrile trifluoroacetate] | 7.72
C[C@@H]1CC(O)C[C@H](n2cnc(-c3c(-n4cc(Cl)nn4)ccc(Cl)c3F)cc2=O)c2cc(ccn2)-c2cc(F)ccc2NC1=O (stereo partly drawn) [Example 40, (10R,14S)-14-{4-[3-chloro-6-(4-chloro-1H-1,2,3-triazol-1-yl)-2-fluorophenyl]-6-oxo-1,6-dihydropyrimidin-1-yl}-4-fluoro-12-hydroxy-10-methyl-8,16-diazatricyclo[13.3.1.0^2,7]nonadeca-1(19),2(7),3,5,15,17-hexaen-9-one trifluoroacetate] | 7.89
COC(=O)Nc1ccc2c(c1)NC(=O)[C@H](C)CCC[C@H](n1cnc(-c3cccc(Cl)c3F)cc1=O)c1cc-2ccn1 [Example 45, methyl N-[(10R,14S)-14-[4-(3-chloro-2-fluorophenyl)-6-oxo-1,6-dihydropyrimidin-1-yl]-10-methyl-9-oxo-8,16-diazatricyclo[13.3.1.0^2,7]nonadeca-1(18),2,4,6,15(19),16-hexaen-5-yl]carbamate trifluoroacetate] | 7.11
COC(=O)Nc1ccc2c(c1)NC(=O)[C@H](C)CCC[C@H](n1cnc(-c3cc(Cl)ccc3F)cc1=O)c1cc-2ccn1 [Example 49, methyl N-[(10R,14S)-14-[4-(5-chloro-2-fluorophenyl)-6-oxo-1,6-dihydropyrimidin-1-yl]-10-methyl-9-oxo-8,16-diazatricyclo[13.3.1.0^2,7]nonadeca-1(19),2(7),3,5,15,17-hexaen-5-yl]carbamate trifluoroacetate] | 7.89
C[C@@H]1CCC[C@H](n2cnc(-c3c(-n4ccnn4)ccc(Cl)c3F)cc2=O)c2cc(ccn2)-c2c(ccc(F)c2F)NC1=O [Example 54, (10R,14S)-14-{4-[3-chloro-2-fluoro-6-(1H-1,2,3-triazol-1-yl)phenyl]-6-oxo-1,6-dihydropyrimidin-1-yl}-3,4-difluoro-10-methyl-8,16-diazatricyclo[13.3.1.0^2,7]nonadeca-1(19),2(7),3,5,15,17-hexaen-9-one trifluoroacetate] | 7.39
C[C@@H]1CCC[C@H](n2cnc(-c3c(-n4cc(Cl)nn4)ccc(Cl)c3F)cc2=O)c2cc(ccn2)-c2ccccc2NC1=O [Example 58, (10R,14S)-14-{4-[3-chloro-6-(4-chloro-1H-1,2,3-triazol-1-yl)-2-fluorophenyl]-6-oxo-1,6-dihydropyrimidin-1-yl}-10-methyl-8,16-diazatricyclo [13.3.1.0^2,7]nonadeca-1(19),2,4,6,15,17-hexaen-9-one] | 8.30
C[C@@H]1CCC[C@H](n2cnc(-c3cc(Cl)ccc3-c3cnn(C)c3)cc2=O)c2cc(ccn2)-c2cc(F)ccc2NC1=O [Example 66, (10R,14S)-14-{4-[5-chloro-2-(1-methyl-1H-pyrazol-4-yl)phenyl]-6-oxo-1,6-dihydropyrimidin-1-yl}-4-fluoro-10-methyl-8,16-diazatricyclo[13.3.1.0^2,7]nonadeca-1(19),2(7),3,5,15,17-hexaen-9-one] | 6.05
C[C@@H]1CCC[C@H](n2cnc(-c3cc(Cl)ccc3-n3cc(Cl)nn3)cc2=O)c2cc(ccn2)-c2ccc(C(F)F)cc2NC1=O [Example 74, (10R,14S)-14-{4-[5-chloro-2-(4-chloro-1H-1,2,3-triazol-1-yl)phenyl]-6-oxo-1,6-dihydropyrimidin-1-yl}-5-(difluoromethyl)-10-methyl-8,16-diazatricyclo [13.3.1.0^2,7]nonadeca-1(19),2(7),3,5,15,17-hexaen-9-one] | 7.40
C[C@@H]1CCC[C@H](n2cnc(-c3cc(Cl)ccc3-n3cc(Cl)nn3)cc2=O)c2cc(ccn2)-c2ccc(Cl)cc2NC1=O [Example 75, (10R,14S)-5-chloro-14-{4-[5-chloro-2-(4-chloro-1H-1,2,3-triazol-1-yl)phenyl]-6-oxo-1,6-dihydropyrimidin-1-yl}-10-methyl-8,16-diazatricyclo [13.3.1.0^2,7]nonadeca-1(19),2(7),3,5,15,17-hexaen-9-one] | 7.00
C[C@@H]1CCC[C@H](n2cnc(-c3cc(Cl)ccc3-n3cc(Cl)nn3)cc2=O)c2cc(ccn2)-c2ccc(C#N)cc2NC1=O [Example 89, (10R,14S)-14-{4-[5-chloro-2-(4-chloro-1H-1,2,3-triazol-1-yl)phenyl]-6-oxo-1,6-dihydropyrimidin-1-yl}-10-methyl-9-oxo-8,16-diazatricyclo[13.3.1.0^2,7]nonadeca-1(19),2(7),3,5,15,17-hexaene-5-carbonitrile trifluoroacetate] | 8.10
C#Cc1ccc2c(c1)NC(=O)[C@H](C)CCC[C@H](n1cnc(-c3cc(Cl)ccc3-n3cc(Cl)nn3)cc1=O)c1cc-2ccn1 [Example 91, (10R,14S)-14-{4-[5-chloro-2-(4-chloro-1H-1,2,3-triazol-1-yl)phenyl]-6-oxo-1,6-dihydropyrimidin-1-yl}-5-ethynyl-10-methyl-8,16-diazatricyclo[13.3.1.0^2,7]nonadeca-1(19),2(7),3,5,15,17-hexaen-9-one] | 6.18
C[C@@H]1CCC[C@H](n2cnc(-c3cc(Cl)ccc3-n3cc(C(F)F)nn3)cc2=O)c2cc(ccn2)-c2ccccc2NC1=O [Example 94, (10R,14S)-14-(4-{5-chloro-2-[4-(difluoromethyl)-1H-1,2,3-triazol-1-yl]phenyl}-6-oxo-1,6-dihydropyrimidin-1-yl)-10-methyl-8,16-diazatricyclo[13.3.1.0^2,7]nonadeca-1(19),2(7),3,5,15,17-hexaen-9-one] | 7.52
C[C@@H]1CCC[C@H](n2cnc(-c3c(-n4cc(Cl)nn4)ccc(Cl)c3F)cc2=O)c2cc(ccn2)-c2cc(C#N)ccc2NC1=O [Example 98, (10R,14S)-14-{4-[3-Chloro-6-(4-chloro-1H-1,2,3-triazol-1-yl)-2-fluorophenyl]-6-oxo-1,6-dihydropyrimidin-1-yl}-10-methyl-9-oxo-8,16-diazatricyclo[13.3.1.0^2,7]nonadeca-1(19),2(7),3,5,15,17-hexaene-4-carbonitrile trifluoroacetate] | 7.40
C[C@@H]1CCC[C@H](n2cnc(-c3cc(Cl)ccc3-n3cc(Cl)nn3)cc2=O)c2cc(ccn2)-c2ccc(OCC(=O)O)cc2NC1=O [Example 99, 2-{[(10R,14S)-14-{4-[5-chloro-2-(4-chloro-1H-1,2,3-triazol-1-yl)phenyl]-6-oxo-1,6-dihydropyrimidin-1-yl}-10-methyl-9-oxo-8,16-diazatricyclo[13.3.1.0^2,7]nonadeca-1(19),2(7),3,5,15,17-hexaen-5-yl]oxy}acetic acid] | 5.31
C[C@@H]1CCC[C@H](n2cnc(-c3cc(Cl)ccc3-n3cc(C(F)(F)F)nn3)cc2=O)c2cncc(c2)-c2cc(F)ccc2NC1=O [Example 103, (10R,14S)-14-(4-{5-chloro-2-[4-(trifluoromethyl)-1H-1,2,3-triazol-1-yl]phenyl}-6-oxo-1,6-dihydropyrimidin-1-yl)-4-fluoro-10-methyl-8,17-diazatricyclo[13.3.1.0^2,7]nonadeca-1(19),2(7),3,5,15,17-hexaen-9-one] | 7.49
C[C@@H]1CCC[C@H](n2cnc(-c3cc(Cl)ccc3-n3cc(Cl)nn3)cc2=O)c2cc(ccn2)-c2c(Cl)cccc2NC1=O [Example 104, (10R,14S)-3-chloro-14-{4-[5-chloro-2-(4-chloro-1H-1,2,3-triazol-1-yl)phenyl]-6-oxo-1,6-dihydropyrimidin-1-yl}-10-methyl-8,16-diazatricyclo [13.3.1.0^2,7]nonadeca-1(19),2(7),3,5,15,17-hexaen-9-one] | 6.72
C[C@@H]1CCC[C@H](n2cnc(-c3cc(Cl)ccc3-n3cc(C(F)(F)F)nn3)cc2=O)c2ccnc(c2)-c2ccc(C#N)cc2NC1=O [Example 113, (10R,14S)-14-(4-{5-chloro-2-[4-(trifluoromethyl)-1H-1,2,3-triazol-1-yl]phenyl}-6-oxo-1,6-dihydropyrimidin-1-yl)-10-methyl-9-oxo-8,18-diazatricyclo [13.3.1.0^2,7]nonadeca-1(19),2(7),3,5,15,17-hexaene-5-carbonitrile] | 7.82
C[C@@H]1CCC[C@H](n2cnc(-c3cc(Cl)ccc3-n3cc(Cl)nn3)cc2=O)c2cc(ccn2)-c2cc(C#N)ccc2NC1=O [Example 114, (10R,14S)-14-{4-[5-chloro-2-(4-chloro-1H-1,2,3-triazol-1-yl)phenyl]-6-oxo-1,6-dihydropyrimidin-1-yl}-10-methyl-9-oxo-8,16-diazatricyclo[13.3.1.0^2,7]nonadeca-1(19),2(7),3,5,15,17-hexaene-4-carbonitrile trifluoroacetate] | 7.59
COC(=O)Nc1ccc2c(c1)NC(=O)[C@H](C)CCC[C@H](n1cnc(-c3cc(Cl)cc4cnn(C)c34)cc1=O)c1cc-2ccn1 [Example 120, N-[(10R,14S)-14-[4-(5-chloro-1-methyl-1H-indazol-7-yl)-6-oxo-1,6-1-yl]-10-methyl-9-oxo-8,16-diazatricyclo[13.3.1.0^2,7]nonadeca-1(19),2(7),3,5,15,17-hexaen-5-yl]carbamate] | 6.74
C[C@@H]1CCC[C@H](n2cnc(-c3cc(Cl)ccc3-c3cnn(C(F)F)c3)cc2=O)c2cc(ccn2)-c2cc(F)ccc2NC1=O [Example 124, (10R,14S)-14-(4-{5-chloro-2-[1-(difluoromethyl)-1H-pyrazol-4-yl]phenyl}-6-oxo-1,6-dihydropyrimidin-1-yl)-4-fluoro-10-methyl-8,16-diazatricyclo [13.3.1.0^2,7]nonadeca-1(19),2(7),3,5,15,17-hexaen-9-one trifluoroacetate] | 6.11
COC(=O)Nc1ccc2c(c1)CCCCCC[C@H](n1cnc(-c3cc(Cl)ccc3-n3cc(Cl)nn3)cc1=O)c1nc-2c[nH]1 [Example 131, methyl N-[(14S)-14-{4-[5-chloro-2-(4-chloro-1H-1,2,3-triazol-1-)phenyl]-6-oxo-1,6-dihydropyrimidin-1-yl}-16,18-diazatricyclo[13.2.1.0^2,7]octadeca-1(17),2,4,6,15 (18)-pentaen-5-yl]carb amate trifluoroacetate] | 5.66
